Results taken from patent US11214803B2, “Modulators of YAP1 expression” (Ionis Pharmaceuticals, Inc., priority 2019, dated 2022).
Several values for one entry are separate records, joined by “and”; a condition that tells them apart may be missing. Identical values can stand only once. Strand notation (5' to 3'): a small letter for the sugar, then the base; units joined by * are phosphorothioate-linked, units joined directly phosphodiester-linked; [ ] holds rarer units or linkages, { } end groups; capitals alone tell only the bases. e = 2'-O-(2-methoxyethyl) (MOE); k = constrained ethyl (cEt); [5mC] = 5-methylcytosine; d = 2'-deoxy (DNA); m = 2'-O-methyl

How the values were obtained:
Yap1 mRNA [1] = assay: Inhibition of human Yap1 mRNA in SNU449 hepatocellular carcinoma xenograft tumors (Example 26); format: in vivo; conditions: SNU449 xenografts in NSG mice, 50 mg/kg twice weekly for five days, relative to PBS treated animals
Method: A SNU449 hepatocellular carcinoma xenograft tumor model was used to evaluate activity of modified oligonucleotides targeted to human Yap1. Ten million SNU449 cells in 30% matrigel were implanted subcutaneously into the flanks of female NOD Cg-Prkdcscid ll2rgtm1Wjl/SzJ (NSG) mice (from Jackson Laboratory) at 4-6 weeks of age. When tumors reached an average volume of 100 mm^3, approximately two weeks post-implantation, groups of four mice each were administered at 50 mg/kg twice weekly with modified oligonucleotides for five days. Tumors were collected and tested for Yap1 mRNA knockdown by RT-qPCR. Yap1 mRNA levels were measured as previously described using the Human Yap1 primer-probe set RTS4814. Yap1 mRNA levels were normalized to actin-beta content, as measured by primer probe set RTS5002. Results are presented in the tables below as percent control of the amount of Yap1 mRNA relative to PBS treated animals (% control).

Yap1 mRNA [2] = assay: Dose-dependent inhibition of human Yap1 in SNU-449 cells (Example 9, RTS36584); format: cell-based; conditions: free uptake; for % UTC (Yap1 mRNA): approximately 48 hours; for IC50: linear regression on a log/linear plot
Procedure, shortened: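 Read-out was Yap1 mRNA (primer-probe RTS36584) normalised to total RNA by RIBOGREEN, given as % of untreated cells, with IC50 fitted by linear regression of log/linear data. Oligonucleotides were dosed by free uptake to SNU-449 cells, 10,000/well, for ~48 h.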

Yap1 mRNA [3] = assay: Dose-dependent inhibition of human Yap1 in A-431 cells (Example 7, 10,000 cells per well, RTS36584); format: cell-based; conditions: free uptake
Procedure, shortened: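 Yap1 mRNA was expressed as percent of untreated control after normalization to total RNA (RIBOGREEN), and IC50 was derived by log/linear linear regression. The read-out used primer-probe set RTS36584 roughly 48 hours after free-uptake dosing of oligonucleotides into A-431 cells (10,000 cells/well).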

[4] = Tolerability in Balb/c mice, plasma chemistry markers (Example 11); format: in vivo; conditions: 50 mg/kg subcutaneously twice a week for four weeks
Method: Balb/c mice were treated with modified oligonucleotides selected from studies described above and evaluated for changes in the levels of various plasma chemistry markers.
(§1) Groups of male Balb/c mice at 4-6 weeks of age (obtained from Taconic) were injected subcutaneously twice a week for four weeks (for a total of 8 treatments) with 50 mg/kg of modified oligonucleotides. One group of male Balb/c mice was injected with PBS. Mice were euthanized on day 26 post start of treatment (24 hours following the final administration).

[5] = Tolerability in CD-1 mice, body and organ weights (Example 15); format: in vivo; conditions: male CD-1 mice, 50 mg/kg s.c. twice a week for four weeks (8 treatments), end of study (day 26)
Method: (§2) Groups of four male CD-1 mice at 4-5 weeks of age (obtained from Charles River) were injected subcutaneously twice a week for four weeks (for a total of 8 treatments) with 50 mg/kg of modified oligonucleotides. One group of male CD-1 mice was injected with PBS. Mice were euthanized on day 26 post start of treatment (24 hrs following the final administration).
(§3) Body weights of CD-1 mice were measured at the end of the study, and the average body weight for each group is presented in the table below. Modified oligonucleotides that caused any changes in organ weights outside the expected range for modified oligonucleotides were excluded from further studies.

[6] = Tolerability in CD-1 mice, plasma chemistry markers (Example 15); format: in vivo; conditions: male CD-1 mice, 50 mg/kg s.c. twice a week for four weeks (8 treatments), day 26
Method: CD-1 mice were treated with modified oligonucleotides selected from studies described above and evaluated for changes in the levels of various plasma chemistry markers.
as §2

Yap1 mRNA [7] = assay: Dose-dependent inhibition of human Yap1 in A-431 cells (Example 6, 5,000 cells per well, RTS4814); format: cell-based; conditions: Table 53, A-431 cells
Procedure, shortened: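 A-431 cells (5,000/well) took up oligonucleotides by free uptake at various doses for about 48 h. Yap1 mRNA was measured by RT-PCR (RTS4814), normalised to RIBOGREEN total RNA and expressed as % untreated control; IC50 by linear regression on a log/linear plot.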

[8] = Tolerability in Balb/c mice, body and organ weights (Example 11); format: in vivo; conditions: 50 mg/kg subcutaneously twice a week for four weeks, end of study
Method: as §1
as §3, with “Balb/c” for “CD-1”

1197269 (kT*kA*kA*dA*mG*dT*dG*dT*dA*dT*dG*dT*d[5mC]*kA*kG*kA; antisense) [compound 1197269]
Yap1 mRNA in tumors, % control (Yap1 mRNA [1]): 57 % control
% UTC (Yap1 mRNA) (Yap1 mRNA [2]; 31.3 nM): 48 % UTC
% UTC (Yap1 mRNA) (Yap1 mRNA [2]; 125.0 nM): 21 % UTC
% UTC (Yap1 mRNA) (Yap1 mRNA [2]; 500.0 nM): 7 % UTC
% UTC (Yap1 mRNA) (Yap1 mRNA [2]; 2000.00 nM): 1 % UTC
IC50 (Yap1 mRNA [2]): < 0.03 µM

1198673 (kG*kA*dT*dT*dT*dA*dG*dG*dA*dT*dG*d[5mC]*kA*eT*kG*eG; antisense) [compound 1198673]
Yap1 mRNA in tumors, % control (Yap1 mRNA [1]): 52 % control
% UTC (Yap1 mRNA) (Yap1 mRNA [2]; 31.3 nM): 51 % UTC
% UTC (Yap1 mRNA) (Yap1 mRNA [2]; 125.0 nM): 26 % UTC
% UTC (Yap1 mRNA) (Yap1 mRNA [2]; 500.0 nM): 8 % UTC
% UTC (Yap1 mRNA) (Yap1 mRNA [2]; 2000.00 nM): 3 % UTC
IC50 (Yap1 mRNA [2]): < 0.03 µM

715483 (k[5mC]*kT*k[5mC]*dT*dT*dT*dG*dG*dA*dA*dA*d[5mC]*d[5mC]*kA*kT*kT) [compound 715483]
Yap1 mRNA, % UTC (Yap1 mRNA [3]; 15.6 nM, A-431 cells, 10,000 cells per well, approximately 48 hours): 88 % UTC and 87 % UTC and 77 % UTC
Yap1 mRNA, % UTC (Yap1 mRNA [3]; 62.5 nM, A-431 cells, 10,000 cells per well, approximately 48 hours): 40 % UTC and 45 % UTC and 36 % UTC
Yap1 mRNA, % UTC (Yap1 mRNA [3]; 4000.00 nM, A-431 cells, 10,000 cells per well, approximately 48 hours): 4 % UTC and 3 % UTC
Yap1 mRNA, % UTC (Yap1 mRNA [3]; Table 56, 15.6 nM, A-431 cells 10,000 cells per well, 48 hours): 78 % UTC
Yap1 mRNA, % UTC (Yap1 mRNA [3]; Table 56, 62.5 nM, A-431 cells 10,000 cells per well, 48 hours): 38 % UTC
Yap1 mRNA, % UTC (Yap1 mRNA [3]; Table 56, 4000.00 nM, A-431 cells 10,000 cells per well, 48 hours): 6 % UTC
IC50 (Yap1 mRNA [3]; Table 56, A-431 cells 10,000 cells per well): 0.05 µM
Yap1 mRNA, % UTC (Yap1 mRNA [3]; Table 57, 15.6 nM, A-431 cells 10,000 cells per well, 48 hours): 79 % UTC
Yap1 mRNA, % UTC (Yap1 mRNA [3]; Table 57, 62.5 nM, A-431 cells 10,000 cells per well, 48 hours): 45 % UTC
Yap1 mRNA, % UTC (Yap1 mRNA [3]; Table 57, 4000.00 nM, A-431 cells 10,000 cells per well, 48 hours): 4 % UTC
IC50 (Yap1 mRNA [3]; Table 57, A-431 cells 10,000 cells per well): 0.1 µM
Yap1 mRNA, % UTC (Yap1 mRNA [3]; Table 58, 15.6 nM, A-431 cells 10,000 cells per well, 48 hours): 84 % UTC
Yap1 mRNA, % UTC (Yap1 mRNA [3]; Table 58, 62.5 nM, A-431 cells 10,000 cells per well, 48 hours): 44 % UTC
Yap1 mRNA, % UTC (Yap1 mRNA [3]; Table 58, 4000.00 nM, A-431 cells 10,000 cells per well, 48 hours): 5 % UTC
IC50 (Yap1 mRNA [3]; Table 58, A-431 cells 10,000 cells per well): 0.1 µM
Yap1 mRNA, % UTC (Yap1 mRNA [3]; Table 59, 15.6 nM, A-431 cells 10,000 cells per well, 48 hours): 83 % UTC
Yap1 mRNA, % UTC (Yap1 mRNA [3]; Table 59, 62.5 nM, A-431 cells 10,000 cells per well, 48 hours): 44 % UTC
Yap1 mRNA, % UTC (Yap1 mRNA [3]; Table 59, 4000.00 nM, A-431 cells 10,000 cells per well, 48 hours): 4 % UTC
IC50 (Yap1 mRNA [3]; Table 59, A-431 cells 10,000 cells per well): 0.1 µM
Yap1 mRNA, % UTC (Yap1 mRNA [3]; Table 60, 15.6 nM, A-431 cells 10,000 cells per well, 48 hours): 79 % UTC
Yap1 mRNA, % UTC (Yap1 mRNA [3]; Table 60, 62.5 nM, A-431 cells 10,000 cells per well, 48 hours): 40 % UTC
Yap1 mRNA, % UTC (Yap1 mRNA [3]; Table 60, 4000.00 nM, A-431 cells 10,000 cells per well, 48 hours): 3 % UTC
IC50 (Yap1 mRNA [3]; Table 60, A-431 cells 10,000 cells per well): 0.1 µM
Yap1 mRNA, % UTC (Yap1 mRNA [3]; Table 61, 15.6 nM, A-431 cells 10,000 cells per well, 48 hours): 80 % UTC
Yap1 mRNA, % UTC (Yap1 mRNA [3]; Table 61, 62.5 nM, A-431 cells 10,000 cells per well, 48 hours): 38 % UTC
Yap1 mRNA, % UTC (Yap1 mRNA [3]; Table 61, 4000.00 nM, A-431 cells 10,000 cells per well, 48 hours): 4 % UTC
IC50 (Yap1 mRNA [3]; Table 61, A-431 cells 10,000 cells per well): 0.1 µM
ALT [4]: 62 U/L
AST [4]: 70 U/L
BUN [4]: 16 mg/dL
TBIL [4]: 0.17 mg/dL
Kidney weight [5]: 0.64 g
Liver weight [5]: 2.26 g
Spleen weight [5]: 0.21 g
body weight [5]: 40 g
ALB [6]: 2.2 g/dL
ALT [6]: 79 U/L
AST [6]: 125 U/L
IC50 (Yap1 mRNA [7]; Yap1 mRNA, linear regression on a log/linear plot): 1.1 µM
% UTC 148 nM (Yap1 mRNA [7]; free uptake, 148 nM, approximately 48 hours, RTS4814): 82 % UTC
% UTC 444 nM (Yap1 mRNA [7]; free uptake, 444 nM, approximately 48 hours, RTS4814): 58 % UTC
% UTC 1333 nM (Yap1 mRNA [7]; free uptake, 1333 nM, approximately 48 hours, RTS4814): 43 % UTC
% UTC 4000 nM (Yap1 mRNA [7]; free uptake, 4000 nM, approximately 48 hours, RTS4814): 35 % UTC
Kidney weight [8]: 0.43 g
Liver weight [8]: 1.56 g
Spleen weight [8]: 0.12 g
body weight [8]: 25 g
